Assay results reported in patent publication US20090270440A1, “BIOAVAILABILITY OF ACTIVE SUBSTANCES HAVING AN AMIDINE FUNCTION IN MEDICAMENTS” (Drite Patentportfolio Beteilligungsgesellschaft mbH & Co. KG, priority 2006, published 2009).

Tests used:
[1] = Oral bioavailability and metabolism study of N,N′-dihydroxybenzamidine in pigs (plasma levels by HPLC); format: in vivo
Method: Metabolism of N,N′-dihydroxybenzamidine to benzamidine in vivo proceeds in the following way:
In order to be able to ascertain the exact dosage of the substances, the animals were weighed once a week. The daily weight gain was calculated from the data. The substances to be administered orally were mixed into the moistened, ground feed concentrate. The substances given intravenously were dissolved in 0.9% NaCl solution in order to avoid hemolysis.
Directly before injection into the indwelling vein catheter, the solution was filtered in order to avoid induction of thrombus formation by any undissolved portions. The injection was followed by flushing with at least 10 ml of 0.9% NaCl solution again. The substance was administered in the morning on each occasion. A washout period took place the next day on each occasion in order to ensure complete excretion of the medicinal substance.
The orally administered doses of N,N′-dihydroxy-benzamidine were in each case 10 mg/kg of body weight (BW). The concentration of the substances administered intravenously as bolus was 2 mg/kg BW. Benzamidine and N,N′-dihydroxybenzamidine were likewise administered intravenously. The samples were taken at previously fixed times. The experimental period for one condition lasted one day. The blood samples were obtained over a period of 24 hours after administration of the substance. After oral administration, the samples were taken after 0, 30, 60, 90, 120, 150, 180, 240, 360, 480, 720 and 1440 minutes. After intravenous administration, an additional sample was taken after 5 and 15 minutes. The whole blood obtained was transferred into heparin tubes and centrifuged (4° C., 10 min, 1500 g). After centrifugation, about 4 ml of plasma were removed as supernatant, pipetted into Eppendorf vessels and frozen at −80° C. The plasma samples were slowly thawed and then centrifuged at 7000 rpm for 3 minutes, worked up by solid-phase extraction and passed on for HPLC.

[2] = literature value (Clement, Lopian 2003); cited from earlier work

Reduction of prodrug to the active form (amidine) in the blood ([1]; after oral administration)	Metabolite benzamide oxime in plasma after injection ([1]; i.v. 2 mg/kg BW)	Reduction of prodrug to the amidine after injection ([1]; i.v. 2 mg/kg BW)	Absorption after oral administration ([1]; oral 10 mg/kg BW)	SMILES	Oral bioavailability [2]
rapidly reduced to the active form	benzamide oxime also being detectable	rapidly reduced to the amidine	almost completely absorbed	O/N=C(/NO)c1ccccc1 [N,N′-dihydroxybenzamidine]	–
–	–	–	–	N=C(N)c1ccc(CNC(=O)[C@@H]2CCN2C(=O)[C@H](NCC(=O)O)C2CCCCC2)cc1 [melagatran]	7%
–	–	–	–	CCOC(=O)CN[C@@H](C(=O)N1CC[C@H]1C(=O)NCc1ccc(/C(N)=N\O)cc1)C1CCCCC1 [ximelagatran]	14%
